Reference: ChEMBL document CHEMBL4118135, “Optimized allosteric inhibition of engineered protein tyrosine phosphatases with an expanded palette of biarsenical small molecules” (Bioorg Med Chem, 2018)
Residue numbers refer to the chain shown, from its start. Activity calls are given as the source filed them. No cut-off for these calls is given here.

Legend:
[1] = target: T1, Tyrosine-protein phosphatase non-receptor type 1 (Homo sapiens) (UniProt P18031); test: Inhibition of His6-tagged human wild-type PTP1B catalytic domain at 2000 nM using pNPP as substrate incubated for 90 mins by quenched phosphatase activity assay
T1 sequence (whole entry): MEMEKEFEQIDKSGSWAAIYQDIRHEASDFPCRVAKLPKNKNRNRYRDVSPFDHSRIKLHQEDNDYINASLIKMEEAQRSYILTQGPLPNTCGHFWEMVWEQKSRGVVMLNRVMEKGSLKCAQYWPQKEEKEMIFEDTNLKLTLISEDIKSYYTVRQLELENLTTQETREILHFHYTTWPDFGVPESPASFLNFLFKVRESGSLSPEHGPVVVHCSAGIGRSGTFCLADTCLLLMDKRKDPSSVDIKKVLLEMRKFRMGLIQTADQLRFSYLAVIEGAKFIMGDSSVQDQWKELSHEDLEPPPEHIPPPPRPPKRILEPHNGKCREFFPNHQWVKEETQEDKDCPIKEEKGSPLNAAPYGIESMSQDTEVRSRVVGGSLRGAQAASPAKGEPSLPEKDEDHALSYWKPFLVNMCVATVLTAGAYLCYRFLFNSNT

[2] = test system: T2, Tyrosine-protein phosphatase non-receptor type 1 (Homo sapiens), P18031 [P87C,A122C]; test: Inhibition of allosterically sensitized His6-tagged human PTP1B catalytic domain P87C/A122C mutant at 2000 nM using pNPP as substrate incubated for =
T2 sequence (whole entry): T1 sequence (whole entry) with P87C, A122C

[3] = target: T1, Tyrosine-protein phosphatase non-receptor type 1 (Homo sapiens); test: Inhibition of His6-tagged human wild-type PTP1B catalytic domain overexpressed in Escherichia coli crude cell lysate using pNPP as substrate incubated for 90 mins by quenched phosphatase activity assay
[4] = target: T1, Tyrosine-protein phosphatase non-receptor type 1 (Homo sapiens); test: Binding affinity to His6-tagged human wild-type PTP1B catalytic domain overexpressed in Escherichia coli crude cell lysate at 6.66 uM incubated for 90 mins by SDS-PAGE and LC-MS/MS method
[5] = test system: T2, Tyrosine-protein phosphatase non-receptor type 1 (Homo sapiens), P18031 [P87C,A122C]; test: Binding affinity to allosterically sensitized His6-tagged human PTP1B catalytic domain P87C/A122C mutant overexpressed in Escherichia coli crude cell lysate incubated for 90 mins by SDS-PAGE and LC-MS/MS method
[6] = target: T3, Tyrosine-protein phosphatase non-receptor type 7 (Homo sapiens) (UniProt P35236); test: Inhibition of His6-tagged human wild-type HePTP catalytic domain overexpressed in Escherichia coli crude cell lysate at 2000 nM using pNPP as substrate incubated for 90 mins by quenched phosphatase activity assay
T3 sequence (whole entry): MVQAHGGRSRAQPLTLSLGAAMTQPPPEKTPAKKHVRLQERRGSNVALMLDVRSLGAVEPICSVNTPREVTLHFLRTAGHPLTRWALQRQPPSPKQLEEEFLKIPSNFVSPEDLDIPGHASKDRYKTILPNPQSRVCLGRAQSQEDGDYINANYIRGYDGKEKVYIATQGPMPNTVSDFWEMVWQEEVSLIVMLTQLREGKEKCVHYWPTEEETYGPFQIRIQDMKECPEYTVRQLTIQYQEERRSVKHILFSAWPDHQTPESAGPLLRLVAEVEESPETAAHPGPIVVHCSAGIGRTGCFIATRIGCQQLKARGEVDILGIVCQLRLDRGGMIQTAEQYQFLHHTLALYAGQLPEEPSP

[7] = test system: T4, Tyrosine-protein phosphatase non-receptor type 7 (Homo sapiens), P35236 [P171C,V205C]; test: Binding affinity to allosterically sensitized mutant form of His6-tagged human HePTP catalytic domain overexpressed in Escherichia coli crude cell lysate at 25 to 100 uM using pNPP as substrate after 90 mins by SDS-PAGE and LC-MS/MS method
T4 sequence (whole entry): T3 sequence (whole entry) with P171C, V205C

[8] = test system: T4, Tyrosine-protein phosphatase non-receptor type 7 (Homo sapiens), P35236 [P171C,V205C]; test: Inhibition of allosterically sensitized mutant form of His6-tagged human HePTP catalytic domain overexpressed in Escherichia coli BL21(DE3) cells using pNPP as substrate incubated for 90 mins by quenched phosphatase activity assay
[9] = target: T5, Tyrosine-protein phosphatase non-receptor type 11 (Homo sapiens) (UniProt Q06124); test: Inhibition of allosterically sensitized mutant form of His6-tagged human SHP2 catalytic domain using pNPP as substrate after 90 mins by quenched phosphatase activity assay
T5 sequence (whole entry): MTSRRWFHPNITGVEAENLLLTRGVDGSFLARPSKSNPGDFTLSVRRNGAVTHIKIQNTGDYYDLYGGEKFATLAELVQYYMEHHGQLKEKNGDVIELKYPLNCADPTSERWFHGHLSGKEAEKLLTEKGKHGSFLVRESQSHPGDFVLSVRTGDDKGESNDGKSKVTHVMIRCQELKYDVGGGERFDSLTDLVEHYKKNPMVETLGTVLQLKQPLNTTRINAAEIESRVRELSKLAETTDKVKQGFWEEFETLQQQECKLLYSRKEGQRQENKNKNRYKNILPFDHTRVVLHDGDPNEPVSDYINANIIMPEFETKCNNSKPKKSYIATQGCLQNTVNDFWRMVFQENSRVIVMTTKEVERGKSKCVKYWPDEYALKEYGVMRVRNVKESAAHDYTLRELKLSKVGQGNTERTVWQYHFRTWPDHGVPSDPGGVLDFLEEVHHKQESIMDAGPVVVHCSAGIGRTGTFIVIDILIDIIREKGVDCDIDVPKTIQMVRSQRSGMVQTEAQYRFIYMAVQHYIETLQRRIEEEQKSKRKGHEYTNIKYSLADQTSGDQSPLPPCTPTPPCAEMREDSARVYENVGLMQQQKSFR

| SMILES | inhibition [1] | inhibition [2] [%] | inhibition [3] | Activity [4] | Activity [5] | inhibition [6] | Activity [7] | inhibition [8] | inhibition [9] |
| --- | --- | --- | --- | --- | --- | --- | --- | --- | --- |
| CC1(C)C(/C=C/C=C2/N(CCCCS(=O)(=O)O)c3ccc([As]4SCCS4)cc3C2(C)C)=[N+](CCCCS(=O)(=O)O)c2ccc([As]3SCCS3)cc21 | inactive | 50 | inactive | inactive | Dose-dependent effect |  |  |  |  |
| O=C(O)c1ccccc1-c1c2ccc(=O)c([As]3SCCS3)c-2oc2c([As]3SCCS3)c(O)ccc12 |  |  |  |  |  | inactive | Active | Dose-dependent effect | Dose-dependent effect |
